Reference: patent US6538015B1, “Anti-HIV pyrazole derivatives” (Hoffmann-La Roche Inc., priority 2001, dated 2003)
Where two headings read alike, the source gives them in different places.

Columns and labels:
[1] = tested on: HXB2-strain of HIV; assay: Antiviral assay: protection of HIV-infected MT4 cells from cell death (MTT); format: cell-based; settings: Human immunodeficiency virus 1, 120 h; MT4 cells infected with HXB2-strain of HIV, 5 d, MTT cell viability
Experimental: Anti-HIV antiviral activity was assessed using an adaptation of the method of Pauwels et al. {Pauwels et al., 1988, J Virol Methods 20:309-321}. The method is based on the ability of compounds to protect HIV-infected T lymphoblastoid cells (MT4 cells) from cell-death mediated by the infection. The endpoint of the assay was calculated as the concentration of compound at which the cell viability of the culture was preserved by 50% (‘50% inhibitory concentration’, IC50). The cell viability of a culture was determined by the uptake of soluble, yellow 3-[4,5-dimethylthiazol-2-yl]-2,5-diphenyltetrazolium bromide (MTT) and its reduction to a purple insoluble formazan salt. After solubilization, spectrophotometric methods were employed to measure the amount of formazan product.
MT4 cells were prepared to be in logarithmic-phase growth and a total of 2×10^6 cells infected with the HXB2-strain of HIV at a multiplicity of 0.0001 infectious units of virus per cell in a total volume of between 200-500 microliters. The cells were incubated with virus for one h at 37° C. before removal of virus. The cells are then washed in 0.01 M phosphate buffered saline, pH 7.2 before being resuspensed in culture medium for incubation in culture with serial dilutions of test compound. The culture medium used was RPMI 1640 without phenol red, supplemented with penicillin, streptomycin, L-glutamine and 10% fetal calf serum (GM10).
Test compounds were prepared as 2 mM solutions in dimethyl sulphoxide (DMSO). Four replicate, serial 2-fold dilutions in GM10 were then prepared and 50 microliters amounts placed in 96-well plates over a final nanomolar concentration range of 625-1.22. Fifty microliters GM10 and 3.5×10^4 infected cells were then added to each well. Control cultures containing no cells (blank), uninfected cells (100% viability; 4 replicates) and infected cells without compound (total virus-mediated cell death; 4 replicates) were also prepared. The cultures were then incubated at 37° C. in a humidified atmosphere of 5% CO2 in air for 5 d.
A fresh solution of 5 mg/mL MTT was prepared in 0.01 M phosphate buffered saline, pH 7.2 and 20 microliters added to each culture. The cultures were further incubated as before for 2 h. They were then mixed by pipetting up and down and 170 microliters of Triton X-100 in acidified isopropanol (10% v/v Triton X-100 in 1:250 mixture of concentrated HCl in isopropanol). When the formazan deposit was fully solubilized by further mixing, the absorbance (OD) of the cultures was measured at 540 nm and 690 nm wavelength (690 nm readings were used as blanks for artefacts between wells). The percent protection for each treated culture can be calculated from the equation: [formula]

[2] = target: HIV-1 RT (Human immunodeficiency virus type 1 group M subtype B, UniProt P04585); assay: HIV-1 Reverse Transcriptase Assay: Inhibitor IC50 Determination; format: biochemical
Experimental: HIV-1 Reverse Transcriptase Assay: Inhibitor IC50 Determination
HIV-1 RT assay was carried out in 96-well Millipore filtermat NOB50 plates using purified recombinant enzyme and a poly(rA)/oligo(dT)16 template-primer in a total volume of 50 μL. The assay constituents were 50 mM Tris/HCl, 50 mM NaCl, 1 mM EDTA, 6 mM MgC2, 5 μM dTTP, 0.1 μCi [^3H] dTTP, 5 μg/ml poly (rA) pre annealed to 2.5 μg/ml oligo (dT)16 and a range of inhibitor concentrations in a final concentration of 10% DMSO. Reactions were initiated by adding 5 nM HIV-1 RT and after incubation at 37° C. for 30 min, they were stopped by the addition of 50 μl ice cold 20% TCA and allowed to precipitate at 4° C. for 30 min. The precipitates were collected by applying vacuum to the plate and sequentially washing with 2×200 μl of 10% TCA and 2×200 μl 70% ethanol. Finally the plates were dried and radioactivity counted in a Wallac Microbeta 1450 after the addition of 15 VI scintillation fluid per well. IC50's were calculated by plotting % inhibition versus log10 inhibitor concentrations.

[3] = purified recombinant enzyme, poly(rA)/oligo(dT)16 template-primer, 37° C. 30 min, read-out: RT IC50/nM

## CC(C)n1nc(CN)c(Cc2ccncc2)c1Sc1cc(Cl)cc(Cl)c1
[1]
  IC50: 7 nM
[2]; [3]
  IC50: 714 nM

## Cc1ncc(Br)c(Cc2c(CO)nn(C(C)C)c2Sc2cc(Cl)cc(Cl)c2)n1
[2]; [3]
  IC50: 518 nM

## CCc1c(COC(N)=O)nn(C(C)C)c1Sc1cc(Cl)cc(Cl)c1
[2]; [3]
  IC50: 61 nM

## COC(=O)NCc1nn(C(C)C)c(Sc2cc(Cl)cc(Cl)c2)c1Cc1ccncc1
[2]; [3]
  IC50: 525 nM

## CC(C)n1nc(COC(N)=O)c(Cc2ccncc2)c1Sc1cc(Cl)cc(Br)c1
[1]
  IC50: 3 nM
[2]; [3]
  IC50: 31 nM

## CC(C)n1nc(CO)c(COCc2cccc(C#N)c2)c1Sc1cc(Cl)cc(Cl)c1
[2]; [3]
  IC50: 250 nM

## CC(C)n1nc(COC(N)=O)c(CO)c1Sc1cc(Cl)cc(Cl)c1
[2]; [3]
  IC50: 6300 nM

## CC(C)n1nc(COC(N)=O)c(Cc2cccs2)c1Sc1cc(Cl)cc(Cl)c1
[1]
  IC50: 30 nM
[2]; [3]
  IC50: 211 nM

## CC(C)n1nc(CNS(C)(=O)=O)c(Cc2ccncc2)c1Sc1cc(Cl)cc(Cl)c1
[2]; [3]
  IC50: 7920 nM

## CC(C)n1nc(CO)c(Cc2ccc(F)c(F)c2)c1Sc1cc(Cl)cc(Cl)c1
[2]; [3]
  IC50: 123 nM

## COc1cc(Cc2c(CO)nn(C(C)C)c2Sc2cc(Cl)cc(Cl)c2)ccn1
[1]
  IC50: 38 nM
[2]; [3]
  IC50: 51 nM

## CC(C)n1nc(CNC(N)=O)c(Cc2ccncc2)c1Sc1cc(Cl)cc(Cl)c1
[1]
  IC50: 1 nM
[2]; [3]
  IC50: 44 nM

## CCn1nc(CO)c(Cc2ccncc2)c1Sc1cc(Cl)cc(Cl)c1
[1]
  IC50: 30 nM
[2]; [3]
  IC50: 183 nM

## CC(C)n1nc(CO)c(Cc2cccs2)c1Sc1cc(Cl)cc(Cl)c1
[1]
  IC50: 93 nM
[2]; [3]
  IC50: 434 nM

## CC(C)n1nc(COC(N)=O)c(COCc2ccncc2)c1Sc1cc(Cl)cc(Cl)c1
[1]
  IC50: 13 nM
[2]; [3]
  IC50: 99 nM

## CC(C)n1nc(CO)c(Cc2ccncc2)c1Sc1cc(F)cc(F)c1
[1]
  IC50: 6 nM
[2]; [3]
  IC50: 206 nM

## CC(C)n1nc(CO)c(Cc2ccncc2)c1Sc1cc(Cl)cc(Cl)c1
[1]
  IC50: 1.3 nM
[2]; [3]
  IC50: 62 nM

## CC(C)n1nc(COC(N)=O)c(Cc2ccncc2)c1Sc1cc(Cl)cc(Cl)c1
[1]
  IC50: 1 nM
[2]
  IC50: 32 nM
